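These data come from cells grown in 96-well plates and exposed to compound for 48 hours at five concentrations. Abbreviation: GI50, concentration required for 50% inhibition of growth. The concentration for full growth arrest is given as TGI.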
How the values were obtained:
Assay in all cases: inhibition of tumour cell growth, NCI panel, 48 h
[1] = test system: MCF7 breast
[2] = test system: HCT-116 colon
[3] = test system: UACC-62 melanoma
[4] = test system: K-562 leukemia
[5] = test system: MOLT-4 leukemia
[6] = test system: SR leukemia
[7] = test system: DU-145 prostate
[8] = test system: SK-MEL-28 melanoma
[9] = test system: RPMI-8226 leukemia
[10] = test system: NCI/ADR-RES ovarian
[11] = test system: SN12C renal
[12] = test system: OVCAR-8 ovarian
[13] = test system: OVCAR-5 ovarian
[14] = test system: HOP-92 NSCLC
[15] = test system: A498 renal
[16] = test system: A549 NSCLC
[17] = test system: HL-60(TB) leukemia
[18] = test system: 786-0 renal
[19] = test system: SF-539 CNS
[20] = test system: SW-620 colon
[21] = test system: NCI-H460 lung
[22] = test system: MDA-MB-435
[23] = test system: SF-268 CNS
[24] = test system: NCI-H23 lung
[25] = test system: CAKI-1 renal
[26] = test system: SF-295 CNS
[27] = test system: U251 CNS
[28] = test system: EKVX NSCLC
[29] = test system: MDA-MB-231 breast
[30] = test system: NCI-H226 lung
[31] = test system: OVCAR-4 ovarian
[32] = test system: ACHN renal
[33] = test system: SNB-75 CNS
[34] = test system: KM12 colon
[35] = test system: HCC-2998 colon
[36] = test system: SNB-19 CNS
[37] = test system: MDA-MB-468 breast
[38] = test system: BT-549 breast
[39] = test system: SK-MEL-5 melanoma
[40] = test system: UACC-257 melanoma
[41] = test system: M14 melanoma
[42] = test system: SK-OV-3 ovarian
[43] = test system: SK-MEL-2 melanoma
[44] = test system: IGROV1 ovarian
[45] = test system: NCI-H522 lung
[46] = test system: HS 578T breast
[47] = test system: CCRF-CEM leukemia
[48] = test system: OVCAR-3 ovarian
[49] = test system: LOX IMVI melanoma
[50] = test system: MALME-3M melanoma
[51] = test system: HT29 colon

With `CCCn1cc(-c2nc(Nc3ccc(C(=O)NCCCCNc4cccc5c4C(=O)N(C4CCC(=O)NC4=O)C5=O)cc3)nc3[nH]ccc23)cn1` (stereo not given) the GI50 [1] was 33.9 nM, the TGI [1] was > 100000 nM and the GI50 [2] was 27400 nM. The TGI [2] was > 100000 nM, the GI50 [3] was > 100000 nM and the TGI [3] was > 100000 nM. The GI50 [4] was 36.8 nM, the TGI [4] was > 100000 nM and the GI50 [5] was < 10 nM. The GI50 [6] was 319 nM, the TGI [6] was > 100000 nM and the GI50 [7] was > 100000 nM. For the same compound, the TGI [7] was > 100000 nM, the GI50 [8] was 123 nM and the TGI [8] was > 100000 nM. For the same compound, the GI50 [9] was 157 nM, the TGI [9] was > 100000 nM and the GI50 [10] was > 100000 nM. For the same compound, the TGI [10] was > 100000 nM, the GI50 [11] was 16.6 nM and the TGI [11] was > 100000 nM. The GI50 [12] was < 10 nM, the TGI [12] was > 100000 nM and the GI50 [13] was 243 nM. The TGI [13] was > 100000 nM, the GI50 [14] was < 10 nM and the TGI [14] was < 10 nM. For the same compound, the GI50 [15] was 157 nM, the TGI [15] was > 100000 nM and the GI50 [16] was 119 nM. For the same compound, the TGI [16] was > 100000 nM, the GI50 [17] was < 10 nM and the TGI [17] was 516 nM. The GI50 [18] was 136 nM, the TGI [18] was > 100000 nM and the GI50 [19] was 67.6 nM. The TGI [19] was > 100000 nM, the GI50 [20] was < 10 nM and the TGI [20] was > 100000 nM. The GI50 [21] was > 100000 nM, the TGI [21] was > 100000 nM and the GI50 [22] was 68.6 nM. The TGI [22] was > 100000 nM, the GI50 [23] was 25.7 nM and the TGI [23] was > 100000 nM. The GI50 [24] was 18600 nM, the TGI [24] was > 100000 nM and the GI50 [25] was 190 nM. The TGI [25] was > 100000 nM, the GI50 [26] was 209 nM and the TGI [26] was > 100000 nM. The GI50 [27] was 589 nM, the TGI [27] was > 100000 nM and the TGI [28] was > 100000 nM. The GI50 [29] was < 10 nM, the TGI [29] was < 10 nM and the GI50 [30] was 31.9 nM. For the same compound, the TGI [30] was > 100000 nM, the GI50 [31] was 35.4 nM and the TGI [31] was > 100000 nM. For the same compound, the GI50 [32] was > 100000 nM, the TGI [32] was > 100000 nM and the GI50 [33] was < 10 nM. For the same compound, the TGI [33] was 2060 nM, the GI50 [34] was 37.4 nM and the TGI [34] was > 100000 nM. For the same compound, the GI50 [35] was < 10 nM, the TGI [35] was > 100000 nM and the GI50 [36] was < 12.4 nM. For the same compound, the TGI [36] was > 100000 nM, the GI50 [37] was < 10 nM and the TGI [37] was < 10 nM. The GI50 [38] was < 10 nM, the TGI [38] was < 10 nM and the GI50 [39] was 30 nM. For the same compound, the TGI [39] was 188 nM, the GI50 [40] was > 100000 nM and the TGI [40] was > 100000 nM. The GI50 [41] was 81.7 nM, the TGI [41] was > 100000 nM and the GI50 [42] was 425 nM. For the same compound, the TGI [42] was > 100000 nM, the GI50 [43] was 53.6 nM and the TGI [43] was > 100000 nM. For the same compound, the GI50 [44] was 11.7 nM, the TGI [44] was > 100000 nM and the GI50 [45] was > 100000 nM. The TGI [45] was > 100000 nM, the GI50 [46] was < 10 nM and the TGI [46] was > 100000 nM. The GI50 [47] was < 10 nM, the TGI [47] was < 10 nM and the GI50 [48] was 424 nM. For the same compound, the TGI [48] was > 100000 nM, the GI50 [49] was > 100000 nM and the TGI [49] was > 100000 nM. The GI50 [50] was < 10 nM, the TGI [50] was < 10 nM and the GI50 [51] was 166 nM. For the same compound, the TGI [51] was > 100000 nM.

From PubChem BioAssay (NCI)
